{
  "source": "paper PMC8713164",
  "about": "“Development of a 1,2,4-Triazole-Based Lead Tankyrase Inhibitor: Part II” (Journal of Medicinal Chemistry, 2021)",
  "key": {"kinetic solubility": {"experiment": "kinetic solubility", "type": "physicochemical", "conditions": "PBS pH = 7", "protocol": "(§1) Kinetic solubility, microsomal stability, and plasma stability were determined following our internal protocol (Symeres). The Caco-2 and PPB determinations were performed by Cyprotex."}, "in vitro": {"experiment": "in vitro", "type": "in vitro ADME", "conditions": "human, Caco-2", "protocol": "as §1"}, "PARP2": {"target": "T1, PARP2 (Homo sapiens, UniProt Q9UGN5)", "T1 construct": "made in house", "T1 sequence (Q9UGN5 whole entry)": "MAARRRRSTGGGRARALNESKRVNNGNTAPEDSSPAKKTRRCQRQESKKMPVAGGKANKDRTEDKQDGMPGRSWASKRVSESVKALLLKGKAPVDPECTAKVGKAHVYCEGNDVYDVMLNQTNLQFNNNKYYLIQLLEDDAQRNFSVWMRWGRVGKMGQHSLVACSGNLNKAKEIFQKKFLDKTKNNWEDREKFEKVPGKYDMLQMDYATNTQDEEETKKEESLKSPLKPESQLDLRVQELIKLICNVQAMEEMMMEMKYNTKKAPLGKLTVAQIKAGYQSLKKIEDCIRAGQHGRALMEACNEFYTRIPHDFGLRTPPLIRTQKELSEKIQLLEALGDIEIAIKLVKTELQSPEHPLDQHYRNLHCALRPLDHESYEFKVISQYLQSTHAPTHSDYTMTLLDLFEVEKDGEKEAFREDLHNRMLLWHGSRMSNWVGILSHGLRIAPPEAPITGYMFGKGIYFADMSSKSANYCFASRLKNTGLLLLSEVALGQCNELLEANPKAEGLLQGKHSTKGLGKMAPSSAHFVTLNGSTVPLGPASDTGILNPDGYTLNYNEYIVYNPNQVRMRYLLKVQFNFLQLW", "experiment": "PARP2 biochemical assay", "conditions": "> under 50% inhibition", "protocol": "(§2) All reactions were performed at ambient temperature.\n(§3) The assay conditions for the other PARP enzymes were used as previously described.[39]"}, "PARP3": {"target": "T2, PARP3 (Homo sapiens, UniProt Q9Y6F1)", "T2 construct": "made in house", "T2 sequence (Q9Y6F1 whole entry)": "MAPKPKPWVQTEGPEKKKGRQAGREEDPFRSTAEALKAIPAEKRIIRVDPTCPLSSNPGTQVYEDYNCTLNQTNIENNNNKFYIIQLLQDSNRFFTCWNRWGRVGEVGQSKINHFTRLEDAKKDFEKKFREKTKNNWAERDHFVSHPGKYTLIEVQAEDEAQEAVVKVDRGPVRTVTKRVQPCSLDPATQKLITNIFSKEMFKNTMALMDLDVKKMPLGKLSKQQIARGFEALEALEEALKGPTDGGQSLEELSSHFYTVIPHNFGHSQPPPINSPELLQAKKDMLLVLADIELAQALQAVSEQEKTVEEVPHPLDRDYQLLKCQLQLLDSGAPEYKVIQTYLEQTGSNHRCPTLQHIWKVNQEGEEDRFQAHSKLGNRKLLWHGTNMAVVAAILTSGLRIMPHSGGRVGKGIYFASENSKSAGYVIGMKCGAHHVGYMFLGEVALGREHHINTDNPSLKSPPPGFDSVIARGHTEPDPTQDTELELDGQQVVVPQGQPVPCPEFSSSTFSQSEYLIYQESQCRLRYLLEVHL", "experiment": "PARP3 biochemical assay", "conditions": "> under 50% inhibition", "protocol": "The enzymatic assay measures unreacted NAD^+, which is chemically reacted into a fluorescent compound.[53] […] All reactions were performed at ambient temperature.\nThe assay conditions for the other PARP enzymes were used as previously described.[39] Reference compound OD336 behaved in this assay as previously reported.[28]"}, "PARP12": {"target": "T3, PARP12 (Homo sapiens, UniProt Q9H0J9)", "T3 construct": "made in house", "T3 sequence (Q9H0J9 whole entry)": "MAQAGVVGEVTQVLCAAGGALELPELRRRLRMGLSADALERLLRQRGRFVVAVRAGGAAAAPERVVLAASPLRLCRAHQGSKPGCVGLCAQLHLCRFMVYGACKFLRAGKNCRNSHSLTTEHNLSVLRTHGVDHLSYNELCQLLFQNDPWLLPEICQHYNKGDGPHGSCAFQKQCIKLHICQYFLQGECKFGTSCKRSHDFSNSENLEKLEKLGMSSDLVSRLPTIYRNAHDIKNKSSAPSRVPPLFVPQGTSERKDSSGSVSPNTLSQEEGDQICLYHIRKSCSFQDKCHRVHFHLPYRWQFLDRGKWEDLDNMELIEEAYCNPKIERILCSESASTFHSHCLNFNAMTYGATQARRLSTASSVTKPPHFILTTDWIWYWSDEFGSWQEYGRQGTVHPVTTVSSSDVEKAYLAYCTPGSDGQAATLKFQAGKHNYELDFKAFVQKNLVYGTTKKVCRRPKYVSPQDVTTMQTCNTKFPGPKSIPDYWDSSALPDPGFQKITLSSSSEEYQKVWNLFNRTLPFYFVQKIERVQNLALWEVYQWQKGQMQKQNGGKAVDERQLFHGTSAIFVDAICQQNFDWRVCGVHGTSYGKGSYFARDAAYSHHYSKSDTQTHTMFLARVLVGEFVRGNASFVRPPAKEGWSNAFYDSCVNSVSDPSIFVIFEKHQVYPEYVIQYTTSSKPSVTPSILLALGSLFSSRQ", "experiment": "PARP12 biochemical assay", "conditions": ">>: no inhibition detected; concentration limited by DMSO tolerance", "protocol": "as §2, §3"}, "PARP14": {"target": "T4, PARP14 (Homo sapiens, UniProt Q460N5)", "T4 construct": "made in house", "experiment": "PARP14 biochemical assay", "conditions": "> under 50% inhibition", "protocol": "as §2, §3"}, "PARP15": {"target": "T5, PARP15 (Homo sapiens, UniProt Q460N3)", "T5 construct": "made in house", "T5 sequence (Q460N3 whole entry)": "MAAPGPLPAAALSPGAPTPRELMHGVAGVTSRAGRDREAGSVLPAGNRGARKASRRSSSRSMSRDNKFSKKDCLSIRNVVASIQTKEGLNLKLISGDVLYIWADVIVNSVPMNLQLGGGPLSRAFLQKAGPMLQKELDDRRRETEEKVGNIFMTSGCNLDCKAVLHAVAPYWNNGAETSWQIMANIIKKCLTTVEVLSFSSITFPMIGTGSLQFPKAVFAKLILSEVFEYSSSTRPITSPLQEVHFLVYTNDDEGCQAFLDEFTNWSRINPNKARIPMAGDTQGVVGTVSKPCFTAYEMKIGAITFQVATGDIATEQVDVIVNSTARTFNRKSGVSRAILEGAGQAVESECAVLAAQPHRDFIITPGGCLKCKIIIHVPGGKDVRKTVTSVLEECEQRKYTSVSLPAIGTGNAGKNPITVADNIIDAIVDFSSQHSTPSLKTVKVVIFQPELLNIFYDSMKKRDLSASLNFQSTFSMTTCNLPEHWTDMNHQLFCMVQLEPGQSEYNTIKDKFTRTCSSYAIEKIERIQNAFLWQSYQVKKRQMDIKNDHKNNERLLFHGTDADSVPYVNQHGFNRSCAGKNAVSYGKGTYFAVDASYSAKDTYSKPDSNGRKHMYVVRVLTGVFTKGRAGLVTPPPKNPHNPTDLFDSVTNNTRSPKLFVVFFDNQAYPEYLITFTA", "experiment": "PARP15 biochemical assay", "conditions": ">>: no inhibition detected; concentration limited by DMSO tolerance", "protocol": "as §2, §3"}, "hERG": {"target": "T6, hERG (Homo sapiens, UniProt Q12809)", "T6 construct": "Eurofins (Cerep), contract assay", "T6 sequence (Q12809 whole entry)": "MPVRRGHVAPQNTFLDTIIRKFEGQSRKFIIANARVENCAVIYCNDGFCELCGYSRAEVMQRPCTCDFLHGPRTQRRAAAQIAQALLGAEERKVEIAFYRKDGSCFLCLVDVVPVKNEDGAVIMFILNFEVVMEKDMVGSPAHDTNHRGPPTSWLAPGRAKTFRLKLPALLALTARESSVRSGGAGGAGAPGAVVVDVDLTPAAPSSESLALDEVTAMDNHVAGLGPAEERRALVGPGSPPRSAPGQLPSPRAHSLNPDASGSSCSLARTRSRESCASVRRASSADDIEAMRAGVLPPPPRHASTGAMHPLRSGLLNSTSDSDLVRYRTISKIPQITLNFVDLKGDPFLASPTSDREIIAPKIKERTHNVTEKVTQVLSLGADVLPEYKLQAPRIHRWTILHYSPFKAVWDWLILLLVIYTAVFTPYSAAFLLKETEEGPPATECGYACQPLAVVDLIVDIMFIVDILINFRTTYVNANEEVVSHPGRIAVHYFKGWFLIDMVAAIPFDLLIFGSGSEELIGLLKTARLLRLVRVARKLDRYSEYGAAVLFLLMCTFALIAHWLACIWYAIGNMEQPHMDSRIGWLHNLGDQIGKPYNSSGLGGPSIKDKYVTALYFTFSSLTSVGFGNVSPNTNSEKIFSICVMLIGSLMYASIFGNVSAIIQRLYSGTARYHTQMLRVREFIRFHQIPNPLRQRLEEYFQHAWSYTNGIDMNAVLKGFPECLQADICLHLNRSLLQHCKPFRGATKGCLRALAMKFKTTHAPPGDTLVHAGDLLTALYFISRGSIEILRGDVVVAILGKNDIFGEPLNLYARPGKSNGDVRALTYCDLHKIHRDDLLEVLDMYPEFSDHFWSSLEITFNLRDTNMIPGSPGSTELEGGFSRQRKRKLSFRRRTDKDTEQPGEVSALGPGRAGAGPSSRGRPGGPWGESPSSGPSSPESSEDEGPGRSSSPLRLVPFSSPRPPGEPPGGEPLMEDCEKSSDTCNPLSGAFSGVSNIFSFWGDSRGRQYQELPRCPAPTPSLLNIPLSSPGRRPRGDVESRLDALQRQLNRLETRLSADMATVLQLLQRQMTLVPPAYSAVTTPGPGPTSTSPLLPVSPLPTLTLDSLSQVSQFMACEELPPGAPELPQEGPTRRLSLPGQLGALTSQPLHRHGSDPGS", "experiment": "hERG inhibition", "protocol": "(§4) A safety panel (Cerep) of 44 selected targets (n = 2) including hERG Inhibition using 10 μM 24 was performed by Eurofins. Ames and CYP3A4 inhibition assays were performed by Cyprotex, and the PXR assay (CYP induction) was performed at Admescope. The PARP assays are described below."}, "human PXR": {"target": "T7, human PXR (Homo sapiens, UniProt O75469)", "T7 construct": "Admescope, contract assay", "T7 sequence (O75469 whole entry)": "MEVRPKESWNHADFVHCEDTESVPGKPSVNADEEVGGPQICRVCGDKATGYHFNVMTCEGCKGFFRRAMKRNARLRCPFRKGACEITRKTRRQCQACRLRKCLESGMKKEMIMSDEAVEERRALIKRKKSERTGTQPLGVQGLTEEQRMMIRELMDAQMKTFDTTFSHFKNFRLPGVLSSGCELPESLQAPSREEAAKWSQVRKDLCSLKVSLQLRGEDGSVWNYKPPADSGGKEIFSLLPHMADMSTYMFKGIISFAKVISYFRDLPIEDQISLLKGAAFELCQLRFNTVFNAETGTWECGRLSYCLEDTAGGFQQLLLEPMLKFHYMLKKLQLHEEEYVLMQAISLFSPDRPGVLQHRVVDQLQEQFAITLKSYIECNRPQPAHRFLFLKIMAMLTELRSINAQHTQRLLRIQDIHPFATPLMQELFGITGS", "experiment": "PXR assay (CYP induction)", "type": "in vitro ADME", "conditions": "highest concentration, 100 μM", "protocol": "as §4"}, "COLO 320DM cells": {"test_system": "COLO 320DM cells", "experiment": "Western blot of cytoplasmic and nuclear lysates of treated COLO 320DM cells", "type": "cell-based, human", "protocol": "After 5 days, the antiproliferative effect of compound treatment was measured at 490 nm. Mean value ± standard deviation (SD) for one representative experiment of more than three repeated assays, each with six replicates, are shown. […] (b) Representative immunoblots of cytoplasmic TNKS1/2, AXIN1, AXIN2, and cytoplasmic and nuclear transcriptionally active β-catenin (non-phospho) and β-catenin. […] For (b) and (c), control = 0.001% DMSO. (c) Real-time RT-qPCR analyses of WNT/β-catenin signaling target genes (AXIN2, DKK1, NKD1, and APCDD1). Boxplots show median, first and third quartiles, and maximum and minimum whiskers for combined data from three independent experiments with three replicates each. Dotted lines depict the control mean value = 1. For (a) and (c), analysis of variance (ANOVA) tests (Holm–Sidak method, versus control) are indicated by *** (p < 0.001) and * (p < 0.05), while ANOVA on ranks tests (Dunn’s method, versus control) are indicated by ^† (p < 0.05).\nWestern blot analysis of nuclear and cytoplasmic lysates from compound-treated COLO 320DM cells was performed as previously described.[39],[50]"}},
  "data": [
    {"smiles": "CCOc1ccc(-c2nnc([C@H]3C[C@H](NC(=O)c4cccc5nccnc45)C3)n2-c2ccccc2F)nc1", "note": "[Compound 24, N-(trans-3-(5-(5-Ethoxypyridin-2-yl)-4-(2-fluorophenyl)-4H-1,2,4-triazol-3-yl)cyclobutyl)quinoxaline-5-carboxamide]", "values": [
      {"measurement": "solubility kinetic at 1 h", "setting": "kinetic solubility", "result": 31, "unit": "µM"},
      {"measurement": "Papp A→B at 2 h, 10 µM", "setting": "in vitro", "result": 40.5, "unit": "×10⁻⁶ cm/s"},
      {"measurement": "efflux ratio", "setting": "in vitro", "result": 0.64},
      {"measurement": "IC50", "setting": "PARP2", "result": "> 100", "unit": "µM"},
      {"measurement": "IC50", "setting": "PARP3", "result": "> 100", "unit": "µM"},
      {"measurement": "IC50", "setting": "PARP12", "result": "> 10", "unit": "µM"},
      {"measurement": "IC50", "setting": "PARP14", "result": "> 100", "unit": "µM"},
      {"measurement": "IC50", "setting": "PARP15", "result": "> 10", "unit": "µM"},
      {"measurement": "IC50", "setting": "hERG", "result": "> 25", "unit": "µM"},
      {"measurement": "CYP induction (human PXR)", "setting": "human PXR", "result": "nonactivator ^b ^c"},
      {"measurement": "level of transcriptionally active β-catenin (nonphosphorylated)", "setting": "COLO 320DM cells; cytoplasmic and nuclear fractions", "result": "reduced"},
      {"measurement": "TNKS1/2 protein levels", "setting": "COLO 320DM cells; dose-dependent, immunoblot", "result": "either increased or decreased"},
      {"measurement": "AXIN1 and AXIN2 protein levels", "setting": "COLO 320DM cells; immunoblot", "result": "stabilized"}
    ]}
  ]
}
